The values below come from ChEMBL document CHEMBL1201862, “PubChem BioAssay data set” (2004).

Holding throughout (assay): DTP human tumour cell line panel, 48 h
Test [1] concerns CAKI-1.
In test [2] the test system is HCT-116.
Test [3] relates to HCT-15.
Test [4] relates to HL-60.
Test [5] concerns HT-29.
Test [6] concerns MDA-MB-231.
Test [7] deals with MOLT-4.
Test [8] deals with Malme-3M.
In test [9] the test system is NCI-H226.
The test system of test [10] is NCI/ADR-RES.
In test [11] the test system is OVCAR-3.
Test [12] deals with OVCAR-5.
The subject of test [13] is OVCAR-8.
The subject of test [14] is RPMI-8226.
In test [15] the test system is SF-295.
The subject of test [16] is SK-OV-3.
In test [17] the test system is U-251.
Test [18] has as its system UO-31.
The test system of test [19] is SW-620.

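Following 48 hours of exposure in 96-well plates, responses at five concentrations were used to interpolate endpoints linearly. GI50 marks 50% less growth.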 The source made the active and inactive calls. Cut-off read from the data, not from the text of the source: active = GI50 up to about 1.1 µM and inactive = higher.

Consider `COC(=O)c1c(O)ccc2c1c1cc3ccccc3c(O)c1n2Cc1ccccc1Cl`, for which the GI50 in [1] was 22.4 µM (inactive); in test [2], 13.2 µM (inactive); in test [3], 19.2 µM; in [4], 32.8 µM (inactive); in test [5] it was 11.7 µM (inactive); in [6] it was 32.3 µM (inactive). Also, the GI50 in [7] was 16.6 µM (inactive); in test [8], 30.3 µM (inactive); in test [9], 31.8 µM (inactive); in [10], 21.8 µM (inactive); in test [11] it was 15.7 µM (inactive); in test [12], 34.9 µM (inactive). The GI50 in test [13] is 25.3 µM (inactive); in [14] it was 20.4 µM (inactive); in test [15], 18.8 µM (inactive); in test [16] it was 12.9 µM (inactive); in [17] it was 31.4 µM (inactive); in [18] it was 22.1 µM (inactive).

Turning to `CC(=O)NC1CONC1=O` (stereo unspecified), the GI50 in test [1] was > 100 µM (inactive); in [2], > 100 µM (inactive); in test [3], above 100 µM; in test [4] it was > 100 µM (inactive); in test [5], > 100 µM (inactive); in [6] it was > 100 µM (inactive). Further, the GI50 in [7], in test [8], in test [9], in test [10], in test [11] and in [12] was > 100 µM (inactive) throughout. Further, the GI50 in test [13], in [14], in test [15], in [16], in test [19] and in test [17] was > 100 µM (inactive) throughout. Also, in [18], the GI50 was > 100 µM (inactive).

For the compound `COc1ccc(/C=C/C(=O)Oc2ccccc2OC)cc1`, the GI50 was > 46.1 µM (inactive) in test [1]; 2.91 µM (inactive) in test [2]; 3.27 µM in [3]; 6.98 µM (inactive) in test [4]; 16.4 µM (inactive) in test [5]; 6.52 µM (inactive) in test [6]. In addition, the GI50 is 1.57 µM (inactive) in test [7]; 56.9 µM (inactive) in [8]; > 96.6 µM (inactive) in test [9]; 27.8 µM (inactive) in [10]; 53.8 µM (inactive) in test [11]; 23.6 µM (inactive) in test [12]. Besides, the GI50 in test [13] was 26.5 µM (inactive); in [14], 1.95 µM (inactive); in test [15], 3.21 µM (inactive); in test [16] it was > 100 µM (inactive); in [19], 21.5 µM (inactive); in [17], 37.4 µM (inactive). In [18], the GI50 is 37.7 µM (inactive).

On to `C/C(=C/C(=O)Nn1c(Cc2ccccc2)n[nH]c1=O)C(=O)O`, for which the GI50 is > 100 µM (inactive) in [1]; > 100 µM (inactive) in [2]; above 100 µM in test [3]; > 100 µM (inactive) in test [4]; > 100 µM (inactive) in test [5]; > 100 µM (inactive) in test [6]. For the same compound, the GI50 in [7], in test [8], in [9], in test [10], in test [11] and in test [12] was > 100 µM (inactive) each time. For the same compound, the GI50 in [13], in [14], in test [15], in test [16], in [19] and in test [17] was > 100 µM (inactive) each time. Besides, the GI50 in [18] is > 100 µM (inactive).

As for `COc1cc(C2c3cc4c(cc3OC3(OC)COC(=O)C23)OCO4)cc(OC)c1OC` (stereo unspecified), the GI50 is 0.568 µM (active) in test [1]; 0.267 µM (active) in test [2]; 0.286 µM in test [3]; 0.263 µM (active) in test [4]; 0.274 µM (active) in test [5]; 0.29 µM (active) in test [6]. The GI50 was 0.456 µM (active) in [7]; 0.605 µM (active) in test [8]; 0.649 µM (active) in [9]; 0.128 µM (active) in [10]; 0.282 µM (active) in test [11]; 3.66 µM (inactive) in test [12]. The GI50 in test [13] was 0.332 µM (active); in test [14], 0.284 µM (active); in test [15], 0.173 µM (active); in [16] it was 0.348 µM (active); in [19], 0.286 µM (active); in test [17], 0.377 µM (active). The GI50 in test [18] is 0.675 µM (active).

With `COc1ccc(C(=O)N2CCN(c3ccc4[nH]c(=O)oc4c3)CC2)cc1`, the GI50 in test [2] was > 100 µM (inactive); in test [3], above 100 µM; in test [4], 39.4 µM (inactive); in [5], > 100 µM (inactive); in [6] it was > 100 µM (inactive); in test [7] it was > 100 µM (inactive). Also, the GI50 was 48.5 µM (inactive) in [8]; > 100 µM (inactive) in test [9]; > 100 µM (inactive) in test [10]; > 100 µM (inactive) in test [11]; > 100 µM (inactive) in test [12]; > 100 µM (inactive) in test [13]. Further, the GI50 in test [14], in test [15], in [16], in test [19], in [17] and in [18] was > 100 µM (inactive) throughout.

Turning to `Nc1c(Br)cc(-c2cc(Br)c(N)c(Br)c2)cc1Br`, the GI50 in test [1], in [2], in [4], in test [5], in test [6] and in [7] was > 100 µM (inactive) each time. Moreover, the GI50 in [8], in test [9], in test [10], in [11], in test [12] and in test [13] was > 100 µM (inactive) in each case. The GI50 in test [14], in test [15], in test [16], in [19] and in test [18] was > 100 µM (inactive) each time.

`COc1ccc(/C=C2/C(=O)N(/C=C3\C(=O)Oc4ccccc4C3=O)/C(=N/C(C)=O)N2C)cc1OC`: the GI50 in test [1] was > 100 µM (inactive); in test [2] it was > 100 µM (inactive); in [3] it was above 100 µM; in [4], > 100 µM (inactive); in [5], > 100 µM (inactive); in [6], > 100 µM (inactive). Also, the GI50 is > 100 µM (inactive) in test [7]; > 100 µM (inactive) in test [8]; > 100 µM (inactive) in test [9]; > 100 µM (inactive) in test [10]; 0.143 µM (active) in [11]; > 100 µM (inactive) in test [12]. Moreover, the GI50 in test [13], in test [14], in test [15], in [16], in [19] and in test [17] was > 100 µM (inactive) throughout.

In the case of `CCOP(C)(=O)C(N)Cc1ccc(OC)c(OC)c1` (stereo unspecified), the GI50 was > 100 µM (inactive) in test [1]; > 100 µM (inactive) in test [2]; above 100 µM in test [3]; > 100 µM (inactive) in test [4]; > 100 µM (inactive) in test [5]; > 100 µM (inactive) in [6]. The GI50 in [7], in test [8], in test [9], in test [10], in [11] and in [13] was > 100 µM (inactive) in each case. For the same compound, the GI50 in test [14], in [15], in test [16], in test [19], in [17] and in test [18] was > 100 µM (inactive) throughout.

For `O=C(NCc1ccccc1)c1cnc(Cl)cn1`, the GI50 was 16.2 µM (inactive) in [1]; 79.8 µM (inactive) in [2]; 23.1 µM in test [3]; > 100 µM (inactive) in test [4]; 33.2 µM (inactive) in test [5]; 85.5 µM (inactive) in test [6]. Also, the GI50 was 27.1 µM (inactive) in test [7]; 34.3 µM (inactive) in test [8]; > 100 µM (inactive) in test [9]; 16.6 µM (inactive) in test [10]; 31.2 µM (inactive) in test [11]; 52.4 µM (inactive) in [13]. In addition, the GI50 in [14] is 44.2 µM (inactive); in test [15], > 100 µM (inactive); in test [16], > 100 µM (inactive); in [19] it was > 100 µM (inactive); in [17], 48.2 µM (inactive); in test [18] it was 18.1 µM (inactive).

`CCOC(=O)c1ccc(-c2cc(C)[nH]n2)[nH]1`: the GI50 in [1] is > 100 µM (inactive); in test [2], > 100 µM (inactive); in [3], above 100 µM; in [4] it was 63.5 µM (inactive); in [5] it was > 100 µM (inactive); in test [6], > 100 µM (inactive). The GI50 in [8], in test [9], in test [10], in test [11], in test [12] and in test [13] was > 100 µM (inactive) each time. In addition, the GI50 in test [14], in [15], in test [16], in [19], in test [17] and in [18] was > 100 µM (inactive) each time.

For orientation: GI50 means the concentration giving 50% growth inhibition.
